Laboratory results as given in patent US20250360155A1, “METHOD OF TREATING SPINAL CORD INJURY AND COMPOSITION FOR USE THEREIN” (ACADEMIA SINICA, priority 2022, published 2025).

Key:
C57BL/6J mice with SCI [1] = test: Behavioral tests (Basso Mouse Scale, footprint analysis) after spinal cord contusion; format: in vivo; details: vs vehicle
Description: (§1) Mice were anesthetized by intramuscular injection of Zoletil® (50 mg/kg; tiletamine hydrochloride and zolazepam hydrochloride) and Rompun® (12 mg/kg; xylazine hydrochloride) before the surgery. After laminectomy on the T9-T10 vertebral column, the spinal cord was exposed and contused by a 10 g rod with an impact head of 1.2 mm diameter at the height of 6.25 mm above the T10 spinal cord to allow it to drop using an Impactor model-II spinal cord contusion system (RWD6809911) to cause the contusion injury. In the sham group, surgery procedures were identical except for the spinal contusion. After the injury, the wound was quickly sutured using 4.0 silk thread (Unik Taiwan; New Taipei city, Taiwan). The bladders of mice were manually and gently massaged once a day to avoid retention of urine until the reflexive control of micturition was restored. Cefazolin (300 mg/kg) was given for consecutive three days after surgery to prevent infection. Fourteen days after the surgery, mice were sacrificed for analyses.
(§2) In one example for the treatment of J4, which can be used as an ENT1 inhibitor, male C57BL/6J mice (8-12 weeks old) were divided into three groups: the sham group, the SCI+J4 group and the SCI+vehicle group. Please refer to FIG. 1. In the J4 group, mice were pretreated with 10 mg/kg J4 twice a day for three days before the injury. Following the SCI, J4 (10 mg/kg) was administered to mice twice a day for consecutive 14 days. In vehicle group, mice were treated with 5% DMSO, instead of J4, following the same protocol of the J4-treated group. The sham group received the same treatment as the vehicle group. All mice were maintained on a 12 h light/dark schedule and given food and water ad libitum in the Laboratory Animal Center (an AAALAC accredited experimental animal facility) at National Taiwan University. Procedures involving animals were conducted according to the ARRIVE (Animal Research: Reporting In Vivo Experiments) guidelines.
(§3) In another example for the treatment of JMF 1907 (i.e. the compound of formula (III)), male C57BL/6J mice (8-12 weeks old) were divided into three groups: the JMF1907 group, the methylprednisolone (MPSS) group and the vehicle group. Wherein, JMF1907 (10 mg/kg twice daily for 14 days), methylprednisolone (30 mg/kg 10 min after crush, then at 2, 4, and 6 h after crush), or vehicle (0.5% DMSO, twice daily for 14 days) was administered to said mice.
The motor function after SCI was evaluated from day 3 to day 14 after the surgery by locomotor open-field rating scale on the Basso Mouse Scale (BMS).^6 Scoring ranged from 0 for complete paraplegia to 9 for normal function. The footprint analysis was assessed on day 14 after the surgery. The hindlimbs of the mice were dipped in red and black dye for left and right foot, respectively. […]

C57BL/6J mice with SCI [2] = test: Nissl staining of spinal cord lesion after spinal cord contusion; format: in vivo, mouse; details: vs vehicle
Description: as §1
(§4) In one example for the treatment of J4, which can be used as an ENT1 inhibitor, male C57BL/6J mice (8-12 weeks old) were divided into three groups: the sham group, the SCI+J4 group and the SCI+vehicle group. Please refer to FIG. 1. In the J4 group, mice were pretreated with 10 mg/kg J4 twice a day for three days before the injury. […]

C57BL/6J mice with SCI [3] = test: Immunofluorescence staining of spinal cord perilesional area after spinal cord contusion; format: in vivo, mouse
Description: as §1, §2, §3
After being anesthetized by Zoletil® (50 mg/kg) and Rompun® (12 mg/kg), mice were intracardially perfused with ice-cold normal saline. The spinal cord (T9-T11) was removed and soaked in ice-cold 4% paraformaldehyde. The vertebrae were then placed in cassettes for paraffin embedding. The samples were cut into sagittal section of 4 μm and placed in water bath at 42° C. The section was mounted onto slides and stored at room temperature until analysis. After deparaffinization, tissue retrieval was conducted in sodium citrate buffer (pH=6) at 90° C. and the spinal cord slices were then washed with phosphate-buffered saline (PBS). Sections were incubated in antibody dilution buffer (Roche, Basel, Swiss) at room temperature. The slides were immunostained by the following primary antibodies: chicken anti-neuronal nuclear protein (NeuN) (1:2000; Merck-Millipore, Dramstadt, Germany), rabbit anti-ionized calcium-binding adapter molecule-1 (Iba-1) (1:1000; Abcam, Cambridge, MA, USA), or mouse anti-glial fibrillary acidic protein (Gfap) (1:1000; cell signaling, Danvers, Massachusetts, USA) overnight at 4° C. Corresponding secondary antibodies conjugated with Alexa Fluor 488 or Rhodamine (Jackson Immuno Research Laboratories, West Grove, PA, USA) were applied for the visualization of immunolabelling. After being washed with PBST (Phosphate Buffered Saline with Tween® 20) and PBS, the slices were mounted on a mounting gel (DAPI Fluoromount G; Southern Biotech Birmingham, Alabama, USA). Images were acquired by a Zeiss AXIO Imager M1 microscope (Carl Zeiss, Gottingen, Germany). […]

C57BL/6J mice with SCI [4] = test: Western blot of spinal cord (T9-T11) after spinal cord contusion; format: in vivo, mouse; details: J4 10 mg/kg twice a day
Description: as §1, §2
The protein concentrations of the samples were determined by the Bio-Rad DC Protein Assay Kit (Bio-rad, Hercules, CA, USA). Protein samples (10 μg each) were diluted with loading buffer (200 mM Tris-HCl, 1.43% 2-mercaptoethanol, 0.4% bromophenol blue, and 40% glycerol) and heated at 98° C. The protein samples were then separated with 90 V for 10 minutes, followed by 130 V for 60 minutes on 12% SDS-polyacrylamide gel (for S100a10, c-caspase3 and GAPDH) or 8% SDS-polyacrylamide gel (for C3, NeuN) in running buffer (0.3% Tris base, 1.88% glycine, and 0.1% SDS). After electrophoresis, the gel was transferred onto a nitrocellulose membrane in transfer buffer (0.3% Tris base, 1.88% glycine, and 20% methanol; pH 8.3) with 300 mA for 90 minutes. Nonspecific binding to membrane was blocked by BlockPRO™ 1 Min Protein Free Blocking Buffer (Neihu, Taipei City, Taiwan) at room temperature on shaker at 25 rpm. […] Bound antibodies were detected using Chemiluminescence reagent Plus (PerkinElmer Life Sciences, MA, USA) and Bio-rad ChemiDoc™ XRS+ Systems and Image Lab™ Software to obtain images under appropriate exposure time.

C57BL/6J mice with SCI [5] = test: RT-qPCR of inflammatory cytokines in spinal cord after spinal cord contusion; format: in vivo, mouse; details: J4 10 mg/kg twice a day; perilesional area, 14 days post-injury; vs vehicle
Description: as §1
as §4, with “injury. Following the SCI, J4 (10 mg/kg) was administered to mice twice a day for consecutive 14 days.” for “injury.”
Mice were anesthetized by the inhalation of isoflurane. […] Total RNA isolation, quality check, cDNA synthesis and SYBR green based quantitative real-time PCR assay were performed as described previously.^7 The forward/reverse primer sequences for IL-1β, IL-6, TNF-α, and GAPDH were listed in Table 1. The relative expression of target genes normalized to that of glyceraldehyde 3-phosphate dehydrogenase (GAPDH) was calculated by the comparative Ct (ΔCt) and was expressed as 2−ΔCt. The relative quantity was determined by the formula: 2−ΔΔCt, in which ΔΔCt values were obtained by subtracting the ΔCt values of mice with SCI from the sham controls.

[6] = JMF1907 10 mg/kg twice daily for 14 days
[7] = JMF1907 10 mg/kg twice daily for 14 days, vs vehicle

OC[C@H]1O[C@@H](n2cnc3c(NCc4ccc(Br)s4)ncnc32)[C@H](O)[C@@H]1O [J4, N^6-[(5-bromothien-2-yl)methyl]adenosine]
stride length (footprint analysis) (C57BL/6J mice with SCI [1]; J4 10 mg/kg twice a day, 3 days before and 14 days after SCI, 14 DPI): improved | BMS score (C57BL/6J mice with SCI [1]; J4 10 mg/kg twice a day, intraperitoneal, 3 days before injury and 14 days after SCI): improved | loss of spinal cord tissue (lesion volume, Nissl staining) (C57BL/6J mice with SCI [2]; J4 10 mg/kg twice a day, 14 days post-injury): significantly reduced | NeuN-positive cells in the perilesional area (immunostaining) (C57BL/6J mice with SCI [3]; J4 10 mg/kg twice a day, 14 DPI, vs vehicle): more | intensity of Iba-1-positive cells (C57BL/6J mice with SCI [3]; J4 10 mg/kg twice a day, perilesional area, 14 DPI, vs vehicle-treated group): lower | average fluorescence intensity of Gfap (C57BL/6J mice with SCI [3]; J4 10 mg/kg twice a day, perilesional area, 14 days post-injury, vs vehicle group): remarkably decreased | protein level of c-caspase3 (C57BL/6J mice with SCI [4]; 14 DPI, vs vehicle): decreased | protein level of NeuN (C57BL/6J mice with SCI [4]; 14 DPI, vs vehicle group): higher | TGF-β protein (C57BL/6J mice with SCI [4]; vs vehicle): significantly increased | protein level of C3 (A1 astrocyte marker) (C57BL/6J mice with SCI [4]; vs vehicle): significantly decreased | protein level of S100a10 (A2 astrocyte marker) (C57BL/6J mice with SCI [4]; vs vehicle): increased | expression of IL-6 (mRNA) (C57BL/6J mice with SCI [5]): trend of reduction | expression of IL-10 (mRNA) (C57BL/6J mice with SCI [5]): trend of reduction | expression of TNF-α (mRNA) (C57BL/6J mice with SCI [5]): significantly reduced

OC[C@H]1O[C@@H](n2cnc3c(NCCc4c[nH]c5ccccc45)ncnc32)[C@@H](O)C1O (stereo partly drawn) [JMF1907]
motor function (BMS score) (C57BL/6J mice with SCI [1]; [6]): significantly improve | stride length (C57BL/6J mice with SCI [1]; [6]): significantly improve | lesion of the SCI (Nissl staining) (C57BL/6J mice with SCI [2]; [6]): significantly reduce | lesion of the SCI (immunofluorescence analysis, Pdgf§ expression) (C57BL/6J mice with SCI [3]; [7]): significantly reduce | level of CD68 (marker for microglia) (C57BL/6J mice with SCI [3]; [7]): significantly reduced | level of Gfap (marker for reactive astrocytes) (C57BL/6J mice with SCI [3]; [7]): significantly reduced | level of Iba-1 (marker for microglia) (C57BL/6J mice with SCI [3]; [7]): significantly reduced
